# Like-named read-outs stand apart in the source and are kept apart here.
# Key:
# [1] = target: B-Raf (Homo sapiens (Human), UniProt P15056); experiment: B-Raf kinase activity biochemical assay (AlphaScreen, biotin-MEK1 phosphorylation); conditions: B-Raf
# Procedure, shortened: (§1)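 Compounds from a 0.1 mM DMSO stock were tested at 8 serially diluted points. Kinase reactions with 100 μM ATP (final) ran 45 min at room temperature, then were stopped with EDTA buffer containing anti-phospho-MEK1/2 antibody plus streptavidin donor and protein A acceptor beads.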
# [2] = system: B-Raf; experiment: as above; conditions: for Biochemical activity ratio B/V600E: ratio of IC50 B-Raf / B-Raf V600E; for Biochemical activity ratio B/C: ratio of IC50 B-Raf / c-Raf-1
# Procedure, shortened: as §1
# [3] = target: B-Raf V600E (Homo sapiens (Human), UniProt P15056, V600E); experiment: B-Raf V600E kinase activity biochemical assay (AlphaScreen, biotin-MEK1 phosphorylation); conditions: for IC50: B-Raf V600E; for Biochemical activity ratio V600E/C: ratio of IC50 B-Raf V600E / c-Raf-1
# Procedure, shortened: as §1
# [4] = target: c-Raf-1 (Homo sapiens, UniProt P04049); experiment: c-Raf-1 kinase activity biochemical assay (AlphaScreen, biotin-MEK1 phosphorylation)
# Procedure, shortened: as §1
# [5] = Relative solubility by turbidity threshold concentration in aqueous buffers (pH 1.5, 4.5, 6.8, 7.4); type: physicochemical; conditions: for turbidity threshold (L, M, H) 1.4: pH 1.4 [sic] (method: SGF pH 1.5); for turbidity threshold (L, M, H) 4.5: pH 4.5 (SIF); for turbidity threshold (L, M, H) 6.8: pH 6.8 (SIF); for turbidity threshold (L, M, H) 7.4: pH 7.4 (HEPES)
# Procedure, shortened: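 Solubility class (high >250 μM, moderate 31.3–250 μM, low <31.3 μM) comes from the concentration where absorbance reaches a 0.01 threshold, averaged across 490/535/650 nm. Samples were compound dilutions from DMSO stock, 1 μL into 99 μL buffer at pH 1.5, 4.5, 6.8 or 7.4.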
# [6] = target: CYP1A2 (Homo sapiens (Human), UniProt P05177); experiment: CYP enzyme inhibition, fluorescent substrate (CEC)
# Procedure, shortened: (§2)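 IC50 derived from loss of fluorescent metabolite across a 10-point 1:1 dilution series. CYP2D6: 1.5 pmol enzyme, 1.5 μM AMMC, 30 min at 37 °C, 409/530 nm; CYP1A2: 0.5 pmol, 5 μM CEC, 15 min, 409/460 nm. Compounds pre-incubated 10 min in NADPH-regenerating mix.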
# [7] = target: CYP2C19 (Homo sapiens (Human), UniProt P33261); experiment: CYP enzyme inhibition, fluorescent substrate (CEC)
# Procedure, shortened: (§3)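 First, 100 mM DMSO stocks are diluted into acetonitrile, then twofold through co-factor mix for 10 points. Next, mixtures are preincubated 10 min at 37 °C.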
# [8] = target: CYP2C9 (Homo sapiens (Human), UniProt P11712); experiment: CYP enzyme inhibition, fluorescent substrate (MFC)
# Procedure, shortened: as §3
# [9] = target: CYP2D6 (Homo sapiens (Human), UniProt P10635); experiment: CYP enzyme inhibition, fluorescent substrate (AMMC); type: in vitro ADME; conditions: read-out: Cyp IC50 2D6
# Procedure, shortened: as §2
# [10] = target: CYP3A4(BFC) (Homo sapiens (Human), UniProt P08684); experiment: CYP enzyme inhibition, fluorescent substrate BFC
# Procedure, shortened: as §3
# [11] = target: CYP3A4(BQ) (Homo sapiens (Human), UniProt P08684); experiment: CYP enzyme inhibition, fluorescent substrate BQ
# Procedure, shortened: as §3
# [12] = read-out: Cyp IC50 2C19, CYP2C19, substrate CEC
# [13] = read-out: Cyp IC50 3A4(BFC), CYP3A4, substrate BFC
# [14] = read-out: Cyp IC50 2C9, CYP2C9, substrate MFC
# [15] = read-out: Cyp IC50 3A4(BQ), CYP3A4, substrate BQ
# Sequence of CYP2C9 (P11712 whole entry): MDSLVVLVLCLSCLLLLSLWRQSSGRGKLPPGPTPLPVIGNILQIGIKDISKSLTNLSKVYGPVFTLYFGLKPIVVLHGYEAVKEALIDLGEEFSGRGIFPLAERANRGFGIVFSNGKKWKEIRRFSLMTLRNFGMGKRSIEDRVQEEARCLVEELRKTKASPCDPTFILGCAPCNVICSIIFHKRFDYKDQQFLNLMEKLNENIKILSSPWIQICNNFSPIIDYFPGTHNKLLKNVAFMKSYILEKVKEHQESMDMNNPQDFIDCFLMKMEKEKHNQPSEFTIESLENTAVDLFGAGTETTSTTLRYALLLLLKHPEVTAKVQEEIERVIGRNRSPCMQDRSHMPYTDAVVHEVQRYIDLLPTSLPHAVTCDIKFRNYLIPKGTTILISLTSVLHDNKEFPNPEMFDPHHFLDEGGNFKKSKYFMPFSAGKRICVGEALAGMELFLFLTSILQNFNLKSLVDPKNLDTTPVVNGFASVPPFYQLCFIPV
# Sequence of CYP2D6 (P10635 whole entry): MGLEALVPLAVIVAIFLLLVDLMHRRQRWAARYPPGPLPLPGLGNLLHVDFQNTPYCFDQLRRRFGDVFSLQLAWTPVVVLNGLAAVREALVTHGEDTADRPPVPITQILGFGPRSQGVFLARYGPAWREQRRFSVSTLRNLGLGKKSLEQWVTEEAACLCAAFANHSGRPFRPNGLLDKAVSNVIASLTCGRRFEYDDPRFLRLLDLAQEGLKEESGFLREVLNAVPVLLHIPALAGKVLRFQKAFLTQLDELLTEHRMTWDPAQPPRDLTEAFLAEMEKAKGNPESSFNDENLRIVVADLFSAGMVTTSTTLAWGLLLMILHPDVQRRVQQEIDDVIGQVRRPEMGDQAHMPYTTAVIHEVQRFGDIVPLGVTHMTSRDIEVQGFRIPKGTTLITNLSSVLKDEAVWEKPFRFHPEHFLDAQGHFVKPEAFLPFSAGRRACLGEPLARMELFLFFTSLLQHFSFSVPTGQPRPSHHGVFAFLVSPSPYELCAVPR
# Sequence of CYP1A2 (P05177 whole entry): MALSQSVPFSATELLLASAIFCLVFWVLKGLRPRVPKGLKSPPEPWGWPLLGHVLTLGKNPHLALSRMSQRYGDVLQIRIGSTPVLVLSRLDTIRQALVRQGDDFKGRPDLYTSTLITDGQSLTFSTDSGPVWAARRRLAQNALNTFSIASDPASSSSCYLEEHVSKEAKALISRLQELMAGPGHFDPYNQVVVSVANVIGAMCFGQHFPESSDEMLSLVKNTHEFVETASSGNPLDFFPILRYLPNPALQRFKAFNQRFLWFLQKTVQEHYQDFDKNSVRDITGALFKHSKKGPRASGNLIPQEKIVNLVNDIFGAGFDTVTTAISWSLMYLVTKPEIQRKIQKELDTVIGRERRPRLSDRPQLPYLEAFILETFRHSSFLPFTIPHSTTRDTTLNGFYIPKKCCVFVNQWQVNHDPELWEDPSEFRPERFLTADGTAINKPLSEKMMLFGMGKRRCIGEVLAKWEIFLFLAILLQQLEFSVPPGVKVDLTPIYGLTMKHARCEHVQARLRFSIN
# Sequence of CYP3A4(BQ) (P08684 whole entry): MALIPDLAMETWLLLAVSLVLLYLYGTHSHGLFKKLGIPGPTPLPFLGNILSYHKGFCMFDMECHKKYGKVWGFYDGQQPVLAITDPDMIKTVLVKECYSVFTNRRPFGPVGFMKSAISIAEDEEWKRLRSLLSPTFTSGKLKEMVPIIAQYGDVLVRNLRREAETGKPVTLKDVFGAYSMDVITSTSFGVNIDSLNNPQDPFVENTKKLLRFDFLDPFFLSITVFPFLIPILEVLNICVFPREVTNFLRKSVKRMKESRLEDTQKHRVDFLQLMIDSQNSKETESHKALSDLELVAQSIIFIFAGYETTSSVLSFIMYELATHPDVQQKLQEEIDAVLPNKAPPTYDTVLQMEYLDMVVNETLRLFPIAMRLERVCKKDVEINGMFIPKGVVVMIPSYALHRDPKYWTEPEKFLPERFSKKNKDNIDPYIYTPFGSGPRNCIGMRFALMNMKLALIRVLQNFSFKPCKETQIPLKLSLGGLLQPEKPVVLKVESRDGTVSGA
# Sequence of CYP3A4(BFC) (P08684 whole entry): as above
# Sequence of B-Raf V600E (P15056 whole entry V600E): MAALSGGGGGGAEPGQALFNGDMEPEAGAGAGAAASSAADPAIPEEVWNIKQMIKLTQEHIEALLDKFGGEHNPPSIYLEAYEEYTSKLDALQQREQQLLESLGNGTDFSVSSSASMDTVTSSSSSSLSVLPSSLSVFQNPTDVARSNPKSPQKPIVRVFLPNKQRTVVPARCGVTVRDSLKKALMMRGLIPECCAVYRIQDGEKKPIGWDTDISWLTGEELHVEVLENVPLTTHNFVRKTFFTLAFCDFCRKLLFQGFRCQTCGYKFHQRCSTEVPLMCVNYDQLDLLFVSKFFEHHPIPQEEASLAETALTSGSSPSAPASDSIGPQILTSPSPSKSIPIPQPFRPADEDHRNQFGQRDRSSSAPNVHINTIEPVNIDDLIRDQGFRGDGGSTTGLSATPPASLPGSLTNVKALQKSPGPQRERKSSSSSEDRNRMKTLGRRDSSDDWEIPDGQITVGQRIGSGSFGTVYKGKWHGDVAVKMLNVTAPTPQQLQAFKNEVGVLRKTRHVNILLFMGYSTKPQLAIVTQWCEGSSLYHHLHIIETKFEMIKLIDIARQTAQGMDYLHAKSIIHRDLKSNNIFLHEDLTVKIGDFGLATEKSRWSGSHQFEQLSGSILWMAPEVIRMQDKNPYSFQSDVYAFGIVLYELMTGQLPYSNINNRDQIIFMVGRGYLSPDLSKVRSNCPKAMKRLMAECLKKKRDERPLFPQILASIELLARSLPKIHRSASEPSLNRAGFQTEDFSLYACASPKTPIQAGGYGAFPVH
# Sequence of CYP2C19 (P33261 whole entry): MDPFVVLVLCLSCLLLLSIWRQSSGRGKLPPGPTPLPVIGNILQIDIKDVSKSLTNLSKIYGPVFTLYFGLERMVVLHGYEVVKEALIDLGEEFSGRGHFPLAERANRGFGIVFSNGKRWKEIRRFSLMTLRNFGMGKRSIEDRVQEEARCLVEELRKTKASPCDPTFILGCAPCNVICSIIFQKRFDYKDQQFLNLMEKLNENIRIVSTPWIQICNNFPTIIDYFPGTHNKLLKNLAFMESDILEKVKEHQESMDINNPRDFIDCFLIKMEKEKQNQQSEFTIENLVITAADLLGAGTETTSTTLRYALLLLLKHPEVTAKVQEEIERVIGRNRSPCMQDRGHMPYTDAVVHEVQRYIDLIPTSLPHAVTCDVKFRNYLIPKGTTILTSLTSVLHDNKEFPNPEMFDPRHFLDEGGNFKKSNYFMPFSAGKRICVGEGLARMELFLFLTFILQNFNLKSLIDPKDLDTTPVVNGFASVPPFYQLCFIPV
# Sequence of c-Raf-1 (P04049 whole entry, looked up): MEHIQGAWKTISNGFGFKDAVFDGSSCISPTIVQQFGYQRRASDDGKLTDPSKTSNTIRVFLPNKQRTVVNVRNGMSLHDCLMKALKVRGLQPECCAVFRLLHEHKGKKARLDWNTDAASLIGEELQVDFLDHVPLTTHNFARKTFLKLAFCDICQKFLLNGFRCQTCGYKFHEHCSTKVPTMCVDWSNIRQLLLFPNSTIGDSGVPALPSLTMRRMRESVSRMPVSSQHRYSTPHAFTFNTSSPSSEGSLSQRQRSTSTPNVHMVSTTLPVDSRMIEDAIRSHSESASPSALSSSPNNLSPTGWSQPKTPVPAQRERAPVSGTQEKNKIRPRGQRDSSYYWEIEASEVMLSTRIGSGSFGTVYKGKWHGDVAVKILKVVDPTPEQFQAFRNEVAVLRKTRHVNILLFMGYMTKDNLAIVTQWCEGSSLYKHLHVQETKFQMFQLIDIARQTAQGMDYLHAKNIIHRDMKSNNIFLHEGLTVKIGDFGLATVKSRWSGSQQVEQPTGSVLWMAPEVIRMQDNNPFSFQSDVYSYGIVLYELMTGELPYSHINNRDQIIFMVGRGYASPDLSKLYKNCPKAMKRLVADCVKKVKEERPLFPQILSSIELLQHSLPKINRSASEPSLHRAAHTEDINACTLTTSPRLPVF
# Sequence of B-Raf (Homo sapiens (Human), UniProt P15056) (P15056 whole entry): as the sequence (P15056 whole entry V600E) above, with E600V counted along it
Structure (SMILES),"IC50 ([6]; human, 15 min) [µM]","IC50 [7, 12] [µM]",IC50 [9] [µM],"IC50 [10, 13] [µM]",IC50 [11] [µM],"IC50 [8, 14] [µM]","IC50 [11, 15] [µM]",IC50 [3] [µM],"turbidity threshold (L, M, H) 1.4 [5]","turbidity threshold (L, M, H) 4.5 [5]","turbidity threshold (L, M, H) 6.8 [5]","turbidity threshold (L, M, H) 7.4 [5]",other results
"Cc1ncnc2[nH]cc(C(=O)c3c(F)ccc(NS(=O)(=O)CC(C)C)c3F)c12 [P-1003, 2-Methyl-propane-1-sulfonic acid [2,4-difluoro-3-(4-methyl-7H-pyrrolo[2,3-d]pyrimidine-5-carbonyl)-phenyl]-amide]",> 10,> 10,> 10,> 10,5 to 10,,,< 0.1,H (high solubility if the threshold concentration is >250 μm),M (moderate solubility if the threshold concentration is 31.3 μM to 250 μM),M (moderate solubility if the threshold concentration is 31.3 μM to 250 μM),M (moderate solubility if the threshold concentration is 31.3 μM to 250 μM),IC50 [1]: > 0.1 µM; Biochemical activity ratio B/V600E [2]: >10; Biochemical activity ratio B/C [2]: >10; Biochemical activity ratio V600E/C [3]: 0.1-10; IC50 [4]: < 0.1 µM; IC50 [8]: 5 to 10 µM
"CCCS(=O)(=O)Nc1ccc(F)c(C(=O)c2c[nH]c3ncnc(Nc4ccccc4)c23)c1F [P-1048, Propane-1-sulfonic acid [2,4-difluoro-3-(4-phenylamino-7H-pyrrolo[2,3-d]pyrimidine-5-carbonyl)-phenyl]-amide]",> 10,> 10,> 10,> 10,,> 10,> 10,< 0.1,,,,,
"O=C(c1c(F)ccc(NS(=O)(=O)c2ccccc2F)c1F)c1c[nH]c2ncnc(NC3CC3)c12 [P-1103, N-[3-(4-Cyclopropylamino-7H-pyrrolo[2,3-d]pyrimidine-5-carbonyl)-2,4-difluoro-phenyl]-2-fluoro-benzenesulfonamide]",> 10,> 10,> 10,> 10,,> 10,> 10,,M (moderate solubility if the threshold concentration is 31.3 μM to 250 μM),L (low solubility if the threshold concentration is <31.3 μM),L (low solubility if the threshold concentration is <31.3 μM),M (moderate solubility if the threshold concentration is 31.3 μM to 250 μM),
"O=C(c1c(F)ccc(NS(=O)(=O)c2cc(F)ccc2F)c1F)c1c[nH]c2ncnc(NC3CC3)c12 [P-1104, N-[3-(4-Cyclopropylamino-7H-pyrrolo[2,3-d]pyrimidine-5-carbonyl)-2,4-difluoro-phenyl]-2,5-difluoro-benzenesulfonamide]",> 10,> 10,> 10,> 10,,> 10,> 10,,H (high solubility if the threshold concentration is >250 μm),M (moderate solubility if the threshold concentration is 31.3 μM to 250 μM),M (moderate solubility if the threshold concentration is 31.3 μM to 250 μM),M (moderate solubility if the threshold concentration is 31.3 μM to 250 μM),

# The next lines start with results.
"IC50 ([6]; human, 15 min) [µM]","IC50 [7, 12] [µM]",IC50 [9] [µM],"IC50 [10, 13] [µM]",IC50 [11] [µM],"IC50 [8, 14] [µM]","IC50 [11, 15] [µM]",Structure (SMILES),IC50 [3] [µM],"turbidity threshold (L, M, H) 1.4 [5]","turbidity threshold (L, M, H) 4.5 [5]","turbidity threshold (L, M, H) 6.8 [5]","turbidity threshold (L, M, H) 7.4 [5]",other results
,,> 10,,> 10,,,"CCCS(=O)(=O)Nc1ccc(F)c(C(=O)c2c[nH]c3ncc(C#N)c(OC)c23)c1F [P-2005, Propane-1-sulfonic acid [3-(5-cyano-4-methoxy-1H-pyrrolo[2,3-b]pyridine-3-carbonyl)-2,4-difluoro-phenyl]-amide]",< 0.1,M (moderate solubility if the threshold concentration is 31.3 μM to 250 μM),L (low solubility if the threshold concentration is <31.3 μM),L (low solubility if the threshold concentration is <31.3 μM),M (moderate solubility if the threshold concentration is 31.3 μM to 250 μM),IC50 [1]: < 0.1 µM; Biochemical activity ratio B/V600E [2]: 0.1-10; Biochemical activity ratio B/C [2]: 0.1-10; Biochemical activity ratio V600E/C [3]: 0.1-10; IC50 [4]: < 0.1 µM; IC50 [6]: > 10 µM; IC50 [7]: > 10 µM; IC50 [8]: < 5 µM; IC50 [10]: > 10 µM
> 10,> 10,> 10,> 10,,> 10,> 10,"CCCS(=O)(=O)Nc1ccc(F)c(C(=O)c2c[nH]c3ncnc(NC4CCCC4)c23)c1F [P-1081, Propane-1-sulfonic acid [3-(4-cyclopentylamino-7H-pyrrolo[2,3-d]pyrimidine-5-carbonyl)-2,4-difluoro-phenyl]-amide]",,H (high solubility if the threshold concentration is >250 μm),L (low solubility if the threshold concentration is <31.3 μM),L (low solubility if the threshold concentration is <31.3 μM),L (low solubility if the threshold concentration is <31.3 μM),
> 10,> 10,> 10,> 10,,> 10,> 10,"CCCS(=O)(=O)Nc1ccc(F)c(C(=O)c2c[nH]c3ncnc(Nc4ccccn4)c23)c1F [P-1077, Propane-1-sulfonic acid {2,4-difluoro-3-[4-(pyridin-2-ylamino)-7H-pyrrolo[2,3-d]pyrimidine-5-carbonyl]-phenyl}-amide]",,H (high solubility if the threshold concentration is >250 μm),L (low solubility if the threshold concentration is <31.3 μM),L (low solubility if the threshold concentration is <31.3 μM),L (low solubility if the threshold concentration is <31.3 μM),
> 10,> 10,> 10,> 10,,> 10,> 10,"CCCS(=O)(=O)Nc1ccc(F)c(C(=O)c2c[nH]c3ncnc(Nc4ccc(OC)cc4F)c23)c1F [P-1101, Propane-1-sulfonic acid {2,4-difluoro-3-[4-(2-fluoro-4-methoxy-phenylamino)-7H-pyrrolo[2,3-d]pyrimidine-5-carbonyl]-phenyl}-amide]",,L (low solubility if the threshold concentration is <31.3 μM),L (low solubility if the threshold concentration is <31.3 μM),L (low solubility if the threshold concentration is <31.3 μM),L (low solubility if the threshold concentration is <31.3 μM),
> 10,> 10,> 10,> 10,5 to 10,< 5,,"CCCS(=O)(=O)Nc1ccc(F)c(C(=O)c2c[nH]c3ncnc(Nc4cccnc4)c23)c1F [P-1078, Propane-1-sulfonic acid {2,4-difluoro-3-[4-(pyridin-3-ylamino)-7H-pyrrolo[2,3-d]pyrimidine-5-carbonyl]-phenyl}-amide]",,M (moderate solubility if the threshold concentration is 31.3 μM to 250 μM),L (low solubility if the threshold concentration is <31.3 μM),L (low solubility if the threshold concentration is <31.3 μM),L (low solubility if the threshold concentration is <31.3 μM),

# — patent US9617267B2, “Compounds and methods for kinase modulation, and indications therefor” (Plexxikon Inc., priority 2009, dated 2017)
